Results published in ChEMBL document CHEMBL4007482, “Evaluation of anti-diabetic effect and gall bladder function with 2-thio-5-thiomethyl substituted imidazoles as TGR5 receptor agonists” (Bioorg Med Chem Lett, 2017).

Assays:
Type in all cases: ADME, organism-based
[1] = Plasma concentration in C57BL/6J mouse at 50 mg/kg, po after 45 mins by LC-MS/MS analysis
[2] = Half life in C57BL/6J mouse at 5 mg/kg, iv by LC-MS/MS analysis; conditions: in vivo
[3] = AUClast in C57BL/6J mouse at 5 mg/kg, iv by LC-MS/MS analysis; design: dose 5 mg/kg, route intravenous, time 0 - last; conditions: in vivo
[4] = AUC (0 to infinity) in C57BL/6J mouse at 5 mg/kg, iv by LC-MS/MS analysis; design: dose 5 mg/kg, time infinity, route intravenous; conditions: in vivo
[5] = Apparent volume of distribution in C57BL/6J mouse at 5 mg/kg, iv by LC-MS/MS analysis; conditions: in vivo, read-out: Vz
[6] = Volume of distribution at steady state in C57BL/6J mouse at 5 mg/kg, iv by LC-MS/MS analysis; conditions: in vivo, read-out: Vdss
[7] = Clearance in C57BL/6J mouse at 5 mg/kg, iv by LC-MS/MS analysis; conditions: in vivo
[8] = MRT in C57BL/6J mouse at 5 mg/kg, iv by LC-MS/MS analysis; conditions: in vivo
[9] = Half life in C57BL/6J mouse at 20 mg/kg, po via gavage by LC-MS/MS analysis; conditions: in vivo
[10] = Tmax in C57BL/6J mouse at 20 mg/kg, po via gavage by LC-MS/MS analysis; conditions: in vivo
[11] = Cmax in C57BL/6J mouse at 20 mg/kg, po via gavage by LC-MS/MS analysis; design: dose 20 mg/kg, route oral; conditions: in vivo
[12] = AUClast in C57BL/6J mouse at 20 mg/kg, po via gavage by LC-MS/MS analysis; design: dose 20 mg/kg, time 0 - last, route oral; conditions: in vivo
[13] = AUC (0 to infinity) in C57BL/6J mouse at 20 mg/kg, po via gavage by LC-MS/MS analysis; design: dose 20 mg/kg, route oral, time infinity; conditions: in vivo
[14] = MRT in C57BL/6J mouse at 20 mg/kg, po via gavage by LC-MS/MS analysis; conditions: in vivo
[15] = Oral bioavailability in C57BL/6J mouse at 20 mg/kg via gavage by LC-MS/MS analysis; conditions: in vivo
[16] = Plasma concentration in CD-1 mouse at 50 mg/kg, po after 1.25 hrs
[17] = Plasma concentration in fasted C57BL/6J mouse at 50 mg/kg, po after 45 mins
[18] = Plasma concentration in fasted C57BL/6J mouse at 30 mg/kg, sc after 45 mins

## COc1ccc(SCc2cnc(SCc3c(F)cc(-c4nn[nH]n4)cc3F)n2-c2ccc(F)cc2)cc1OC
[1]
  concentration at 0.75 h: 1180 nM
[2]
  half-life: 26.7 min
[3]
  AUC(0-t): 379 ng·h/mL
[4]
  AUC(0-inf): 390 ng·h/mL
[5]
  Vd: 8.24 L/kg
[6]
  Vd: 4.44 L/kg
[7]
  clearance: 214 mL/min/kg
[8]
  MRT: 17 min
[9]
  half-life: 164 min
[10]
  Tmax: 30 min
[11]
  Cmax: 68.1 ng/mL
[12]
  AUC(0-t): 98.4 ng·h/mL
[13]
  AUC(0-inf): 148 ng·h/mL
[14]
  MRT: 82.2 min
[15]
  bioavailability: 6.48%
[16]
  concentration at 1.25 h: 20 nM
[17]
  concentration at 0.75 h: 1030 nM
[18]
  concentration at 0.75 h: 15800 nM
